Consider seven compounds from patent US8486965B2, “Pyrrolo[2,3-b]pyridine derivative and use thereof for treatment of cancer” (Takeda Pharmaceutical Company Limited, priority 2009, dated 2013).

Experiment [1] deals with Hedgehog signal transduction system (Smo). Kind of experiment: Gli reporter luciferase assay in NIH-3T3/Gli reporter cells stimulated with mouse Shh-N end fragment. It counts as cell-based. The settings on record: NIH3T3; 1 μM compound; NIH-3T3/Gli reporter cells with mouse Shh-N end fragment culture supernatant, 48 hr; luciferase activity, control without compound as 100; read-out: inhibition rate (%) at 1 μM. Summed up: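 NIH-3T3 cells stably carrying a luciferase reporter driven by 8× Gli-binding sites and chicken δ-crystalline promoter, plated at 1×10^4 cells/well and cultured overnight at 37° C in 10% FBS D-MEM. Compound added with recombinant mouse Shh-N fragment (aa 1–198, HEK293-expressed) to induce signaling; luciferase read-out.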

The test system of a further experiment is mouse medulloblastoma. Kind of experiment: In vivo anti-tumor test, mouse medulloblastoma allogeneic transplantation model. The settings on record: 1 mg/kg, orally once a day for 2 weeks; subcutaneous medulloblastoma in nude mouse; at the end of the test; p < 0.025 (Dunnett's test). Here is the method: According to the description in Sasaki, K. et al., (2006) Cancer Res. 66: 4215-4222, an anti-tumor effect of a compound was evaluated using a mouse medulloblastoma allogeneic transplantation model. To be precise, Patched 1 gene mutant mouse (lineage name: Ptch1tm1Mps/J) was purchased from The Jackson Laboratory and p53 gene mutant mouse (lineage name: P53N4-M, Nomenclature: B6.129-Trp53tm/BrdN4) was purchased from Taconic, and a mouse of Patched 1(+/−), p53(−/−) phenotype was prepared by mating. […]
An anti-tumor test was performed using a tumor passaged by subcutaneous transplantation. […] The tumor diameter after transplantation was measured and, when the tumor size reached 150-250 mm^3, the anti-tumor test was started using 5 mice per group.
The test compound was prepared to achieve a dose of 1 mg/kg with a 0.5% methylcellulose (Shin-Etsu Chemical Co., Ltd., Cat. No. SM-100) suspension, and orally administered once a day for 2 weeks. The tumor size was calculated based on the longer diameter and shorter diameter of the tumor measured with an electron vernier caliper. After the start of the test, the tumor size was measured every 2 or 3 days and the growth rate of the tumor size was calculated. […]

On to `CCc1nc2c(cc1NC(=O)c1ccccc1)c(OC(C)C)c(C(=O)NC1CCN(C(=O)CO)CC1)n2C` [Example 46, 6-ethyl-N-[1-(hydroxyacetyl)piperidin-4-yl]-1-methyl-3-(1-methylethoxy)-5-[(phenylcarbonyl)amino]-1H-pyrrolo[2,3-b]pyridine-2-carboxamide], for which the inhibition at 1 µM in experiment [1] turned out to be 98%. Also, in the experiment on mouse medulloblastoma, the “T/C (%) (growth rate of the tumor size)” value is recorded as 51%.

As to `CCc1nc2c(nc1NC(=O)c1ccccc1)c(OC(C)C)c(C(=O)NC1CCN(C(=O)CO)CC1)n2C` [Example 163, 3-ethyl-N-[1-(hydroxyacetyl)piperidin-4-yl]-5-methyl-7-(1-methylethoxy)-2-[(phenylcarbonyl)amino]-5H-pyrrolo[2,3-b]pyrazine-6-carboxamide], the inhibition at 1 µM in experiment [1] was 98%.

For `Cc1nc2c(nc1NC(=O)c1ccccc1)c(OC(C)C)c(C(=O)NC1CCN(C(=O)CO)CC1)n2C` [Example 164, N-[1-(hydroxyacetyl)piperidin-4-yl]-3,5-dimethyl-7-(1-methylethoxy)-2-[(phenylcarbonyl)amino]-5H-pyrrolo[2,3-b]pyrazine-6-carboxamide], in experiment [1], the inhibition at 1 µM is 99%.

For `CCc1cc2c(nc1NC(=O)c1ccc(F)cc1)c(OC(C)C)c(C(=O)NC1CCN(C(=O)CO)CC1)n2C` [Example 167, 6-ethyl-5-{[(4-fluorophenyl)carbonyl]amino}-N-[1-(hydroxyacetyl)piperidin-4-yl]-1-methyl-3-(1-methylethoxy)-1H-pyrrolo[3,2-b]pyridine-2-carboxamide], the inhibition at 1 µM in experiment [1] worked out at 99%.

Regarding `CCc1cc2c(cc1NC(=O)c1ccc(F)cc1)c(OC(C)C)c(C(=O)NC1CCN(C(=O)CO)CC1)n2C` [Example 168, 6-ethyl-5-{[(4-fluorophenyl)carbonyl]amino}-N-[1-(hydroxyacetyl)piperidin-4-yl]-1-methyl-3-(1-methylethoxy)-1H-indole-2-carboxamide], the inhibition at 1 µM in experiment [1] amounted to 97%.

In the case of `CCc1cc2c(cc1NC(=O)c1ccc(Cl)cc1)c(OC(C)C)c(C(=O)NC1CCN(C(=O)CO)CC1)n2C` [Example 169, 5-{[(4-chlorophenyl)carbonyl]amino}-6-ethyl-N-[1-(hydroxyacetyl)piperidin-4-yl]-1-methyl-3-(1-methylethoxy)-1H-indole-2-carboxamide], the inhibition at 1 µM in experiment [1] stood at 99%.

Regarding `CCc1nc2c(cc1NC(=O)c1ccccc1)c(OC(C)C)c(C(=O)N[C@H]1CC[C@@H](O)CC1)n2C` [Example 173, 6-ethyl-N-(cis-4-hydroxycyclohexyl)-1-methyl-3-(1-methylethoxy)-5-[(phenylcarbonyl)amino]-1H-pyrrolo[2,3-b]pyridine-2-carboxamide], the inhibition at 1 µM in experiment [1] was determined as 98%.

Usually inhibition stands for the drop in the measured response relative to a control, in per cent.
